In US20100168182A1, “COMPOUNDS AND COMPOSITIONS AS KINASE INHIBITORS” (IRM LLC, priority 2006, published 2010):

Legend:
[1] = molecular target: T1, Ba/F3 cells transformed with human Tel-TrkB (ETV6-NTRK2) (Homo sapiens, UniProt Q16620); experiment: Inhibition of cellular TrkB dependent proliferation (Ba/F3 Tel-TrkB); type: cell-based; conditions: urea versus amide linkage
T1 construct: expressed in transfected cells; host or cells: Ba/F3 murine hematopoietic progenitor cell line; the other entry of the earlier key: ETV6 (P41212, Transcription factor ETV6)
Description: (§1) Inhibition of Cellular TrkA, trkB or TrkC Dependent Proliferation
(§2) The cell line used is the Ba/F3 murine hematopoietic progenitor cell line transformed with human Tel-TrkA, Tel-TrkB or Tel-TrkC cDNAs (Ba/F3 EN A/B/C). These cells are maintained in RPMI/10% fetal bovine serum (RPMI/F B S) supplemented with penicillin 50 μg/mL, streptomycin 50 μg/mL and L-glutamine 200 mM. Untransformed Ba/F3 cells are similarly maintained with the addition 5 ng/ml of murine recombinant IL3.
(§3) 50 μl of a Ba/F3 or Ba/F3 EN A/B/C cell suspension are plated in Greiner 384 well microplates (white) at a density of 2000 cells per well. 50 nl of serially diluted test compound (1 0-0.0001 mM in DMSO solution) is added to each well. […] The emited luminiscence is quantified using the Acquest™ system (Molecular Devices).
(§4) Compounds of the invention are tested for their antiproliferative effect on Ba/F3 cells expressing either Tel-TrkA, Tel-TrkB or Tel-TrkC and an additional panel of 34 selected diverse kinases activated by fusion to the dimerizing partners Bcr or Tel (Abl, AlK, BMX, EphA3, EphB2, FGFR2, FGFR3, FGFR4, FGR, FLT1, FLT3, FLT4, FMS, IGF1R, InsR, JAK1, JAK2, JAK3, KDR, Kit, Lck, Lyn, MER, MET, PDGFRb, RET, RON, Ros-1, Src, Syk, TIE2, TYK2, Tie1, ZAP70). […] The IC50 values of the compounds in the different cell lines were determined from the dose response curves obtained as describe above.

[2] = Measuring bioavailability: plasma concentration in mice; type: in vivo, male Balb/c mice; conditions: ratio compound 17 / compound A
Description: Five- to six-week old male Balb/c mice are housed at room temperature (18 to 22° C.) and humidity in the range 40-70%. The animal weights at the time of compound administration range from 20 to 25 grams. The mice are fed a normal diet and have free access to water at all times, before and during experiments. Fasted animals are studied on an infrequent basis. To maximize drug absorption via oral gavage and/or study food effects, animals are fasted the night before dosing and 4 hours thereafter. Animal experiments are performed according to the Animal Welfare Act and the Guide for the Care and Use of Laboratory Animals approved by the Institutional Animal Care and Use Committee (IACUC).
Test compounds are dissolved in a vehicle for dosing at a final concentration of 0.5 to 10 mg/mL. Test compounds are dosed intravenously via the lateral tail vein and orally using a gavage needle. Dosing procedures, dosing volumes, and the selection of dosing vehicles or formulations adhered to the Guidelines issued by the Novartis Pharmacology Council entitled “Preparation and Administration of Experimental Formulation in Pre-ESC Phase”. Briefly, i.v. doses are administered in solutions that are neutral and isotonic aqueous based and oral doses are administered in either solution (with or without co-solvent) or suspension.
Blood samples are drawn via retro orbital sinus. For ease of handling, animals are sometimes anesthetized under isoflurane vapor. Approximately five 50 μl samples of blood are removed each sampling time.
Pharmacokinetic parameters are calculated by non-compartmental regression analysis using Winnonlin 4.0 software (Pharsight, Mountain View, Calif., USA). The typical intravenous and oral dosing study in mice would results in the reporting of the following pharmacokinetic parameters: i.v. dosing: Vss, CL, AUC, Cmax, Tmax, Clast, Tlast and T1/2; and p.o. dosing: F, AUC, Cmax, Tmax, Clast, Tlast and T1/2.

[3] = molecular target: T2, Ba/F3 cells transformed with human Tel-TrkA (ETV6-NTRK1) (Homo sapiens, UniProt P04629); experiment: Inhibition of cellular TrkA dependent proliferation (Ba/F3 Tel-TrkA); type: cell-based; conditions: urea versus amide linkage
T2 construct: expressed in transfected cells; host or cells: Ba/F3 murine hematopoietic progenitor cell line; the other entry of the earlier key: ETV6 (P41212, Transcription factor ETV6)
Description: as §1, §2, §3, §4

[4] = tested on: Ba/F3 cells transformed with human Tel-TrkC (ETV6-NTRK3); experiment: Inhibition of cellular TrkC dependent proliferation (Ba/F3 Tel-TrkC); type: cell-based; conditions: urea versus amide linkage
Description: as §1, §2, §3, §4

T2 sequence (P04629 510-796 limits assumed): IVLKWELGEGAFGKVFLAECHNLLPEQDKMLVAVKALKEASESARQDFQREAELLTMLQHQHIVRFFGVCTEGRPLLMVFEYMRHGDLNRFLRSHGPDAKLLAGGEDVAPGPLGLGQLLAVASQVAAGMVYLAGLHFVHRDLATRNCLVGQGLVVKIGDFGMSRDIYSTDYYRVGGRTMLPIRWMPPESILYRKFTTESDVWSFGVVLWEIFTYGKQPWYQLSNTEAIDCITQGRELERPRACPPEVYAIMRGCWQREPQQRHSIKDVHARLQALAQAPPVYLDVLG
T1 sequence (Q16620 538-822 limits assumed): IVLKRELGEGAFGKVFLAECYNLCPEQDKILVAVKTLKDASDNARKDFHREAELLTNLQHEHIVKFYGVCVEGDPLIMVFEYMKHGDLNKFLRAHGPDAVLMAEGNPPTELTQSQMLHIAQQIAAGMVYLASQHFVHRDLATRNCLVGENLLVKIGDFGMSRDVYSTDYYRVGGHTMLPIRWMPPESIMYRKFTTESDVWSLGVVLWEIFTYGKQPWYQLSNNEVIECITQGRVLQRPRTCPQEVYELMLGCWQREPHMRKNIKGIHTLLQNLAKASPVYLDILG

| potency for TrkB relative to the equivalent amide-linked compound (compound A) [1] | plasma concentration relative to compound A ([2]; at 30 minutes) | plasma concentration relative to compound A ([2]; at 1 hour) | plasma concentration relative to compound A ([2]; at 3 hours) | plasma concentration relative to compound A ([2]; at 5 hours) | potency for TrkA relative to the equivalent amide-linked compound (compound A) [3] | melting point | SMILES | potency for TrkC relative to the equivalent amide-linked compound (compound A) [4] |
| --- | --- | --- | --- | --- | --- | --- | --- | --- |
| at least 132 fold | 2.2 times | 4.1 times | 4.7 times | 2.3 times | at least 132 fold |  | O=C(Nc1cccc(Nc2ccc3c(c2)NC(=O)/C3=C\c2ccc[nH]2)c1)Nc1ccc(F)cc1F [Compound 17, 1-(2,4-Difluoro-phenyl)-3-{3-[2-oxo-3-(1H-pyrrol-2-ylmethylene)-2,3-dihydro-1H-indol-6-ylamino]-phenyl}-urea] | at least 132 fold |
|  |  |  |  |  |  | 253 to 256 °C | O=C(Nc1cccc(Nc2ccc3c(c2)NC(=O)/C3=C\c2ccc[nH]2)c1)Nc1cccc(C(F)(F)F)c1 [Example 1, 1-{3-[2-oxo-3-(1H-pyrrol-2-ylmethylene)-2,3-dihydro-1H-indol-6-ylamino]phenyl}-3-(3-trifluoromethylphenyl)urea] |  |
|  |  |  |  |  |  | 224 to 226 °C | O=C(Nc1cccc(Nc2ccc3c(c2)NC(=O)/C3=C\c2ccc[nH]2)c1)Nc1cc(F)c(F)cc1F [Example 3, 1-{3-[2-oxo-3-(1H-pyrrol-2-ylmethylene)-2,3-dihydro-1H-indol-6-ylamino]phenyl}-3-(2,4,5-trifluorophenyl)urea] |  |
